In patent publication US20220135564A1, “DEUTERATED MITRAGYNINE ANALOGS AS SAFER OPIOID MODULATORS IN THE MITRAGYNINE CLASS” (The Trustees of Columbia University in the City of New York, priority 2019, published 2022):
Counter-ions that a name gives are not always drawn.

What was measured:
mice = assay: Analgesic activity of DHM in mice; type: in vivo, mouse
male mice (C57BL/6J) = assay: Rotarod test in mice (motor coordination); type: in vivo, mouse; conditions: male C57BL/6J mice, s.c., cumulative 3, 10, 30 mg/kg, compared to vehicle
Protocol: The rotarod test is useful for measuring the motor coordination of rodents and therefore, for identifying test drugs that induce ataxic effects. 3-Dehydromitragynine (DHM) reduces the performance of mice in this test in a dose-dependent manner; indicating an impairment of motor coordination by this compound (FIG. 1).
Animals. This study was conducted using male C57BL/6J mice, 7 weeks of age (n=10/treatment), purchased from The Jackson Laboratory (Bar Harbor, Me.). Animals were housed in groups of five and allowed to acclimate for 1 week prior to testing. Mice had ad libitum access to food and water and were maintained on a 12-hour light/dark cycle. All testing was done in the light cycle.
Drug. DHM hydrochloride was dissolved in double-distilled H2O containing 10% N-methyl-2-pyrrolidone (NMP). Drug or vehicle was administered subcutaneously 15 minutes prior to the start of behavioral testing at a volume of 10 mL/kg body weight. Dosing was performed cumulatively at 3, 10, and 30 mg/kg, with 1 hour between injections.
Rotarod Testing. On the test day, animals were acclimated to the testing room for 1 hour. An accelerating rotarod (Model 7650, UGO Basile, Comeria, VA, Italy) was used to measure the motor coordination of the animals. Time on the rotarod was measured by stopwatch, starting when animals were placed on the rod and ending at the time the animal fell off the apparatus. […]

[1] = Metabolic profiling of DHM in mouse liver S9 fraction (MS9); type: in vitro ADME; conditions: DHM 10 μM, MS9, 60-min incubation, positive ion mode
Protocol: Analytical System. The metabolic profiling of DHM in mouse liver S9 fraction was performed using high performance liquid chromatography-tandem mass spectrometry (HPLC-MS/MS). A Shimadzu HPLC system comprising 2 isocratic pumps (LC-10ADvp), an autosampler (SIL-30ACMP), a system controller (CBM-20A), a high-pressure switching valve (FCV-20AH6), and a degasser (DGU-14A) was used for separations. Mass spectrometric analyses were performed using an API 4000 QTRAP mass spectrometer from Applied Biosystems/MDS Sciex (AB Sciex) with Turbo V ion source and TurboIonspray interface. Data acquisition and system control was performed using Analyst 1.6.3 software from AB Sciex.
Liver S9 Incubations. Liver S9 fraction pooled from male CD-1 mice was used. Incubations were carried out in 1.1 mL microtubes (in 96-well format plate) in aliquots of 40 μL each (2 for each time point; 0, 6, 16, 30, and 60 min). […] Control incubations were performed replacing the cofactor system with phosphate buffer. Test compound DHM (10 μM, final solvent concentration 1.6%) was incubated with S9 at 37° C., shaking at 100 rpm. Incubations were performed in duplicate. Five time points over 60 minutes (0, 6, 16, 30, and 60 min) were analyzed. […] Supernatants (two time points, 0 and 60 min) were analyzed for remaining parent compound and putative metabolites by HPLC-MS/MS.
General Strategy for Identification of Metabolites. […]

[2] = system: mice (129Sv6 or CD-1 strain); assay: Lethality assay in mice; type: in vivo, mouse; conditions: s.c., lethality 24 h after administration
Protocol: Lethality Assay. Groups of mice (n=6 per dose, 129Sv6 or CD-1 strain) were treated subcutaneously (s.c.) with different doses of DHM and tested for lethality 24 h after drug administration.

In the case of `CC[C@@H]1C[N+]2=C(C[C@@H]1/C(=C\OC)C(=O)OC)c1[nH]c3cccc(OC)c3c1CC2` [DHM, 3-Dehydromitragynine hydrochloride], the “analgesic activity on its own” value (mice) was “does not exhibit analgesic activity”, the “motor coordination, latency to fall in the rotarod test” value (male mice (C57BL/6J)) was “dramatically impairs motor coordination” and the “% Area” value [1] was 20%. The “LD50 (95% confidence interval)” value ([2]; 129Sv6 mice) was 48.4 (71.27-342.3) mg/kg and the “LD50 (95% confidence interval)” value ([2]; CD-1 mice) was 74 (48.08-120.5) mg/kg.
